Assay results as given in patent US20240425583A1, “METHODS AND COMPOSITIONS RELATED TO MCL-1 AND BIM HETERODIMER ANTIBODIES” (priority 2021, published 2024).

Key:
[1] = test system: Mcl-1:Bim complex; assay: Heterodimer to monomer ratio by flow cytometry in SET2 cells (FIG. 18); format: cell-based; settings: A1155463 treated SET2 cells, detected with F05
Protocol: (§1) FIG. 18 is a graph showing a ratio of measured heterodimer to monomer in Bcl-xL dependent cell lines: Bcl-2:Bim, Mcl-1:Bim, and Bcl-xL:Bim. Bcl-xL:Bim shifts against Bcl-xL and Mcl-1 upon treatment. In this experiment, a shift away from the complex is detected when the sample is treated with BCLXL targeted BH3 mimetic (A1155463).

[2] = test system: Mcl-1:Bim complex; assay: Heterodimer to monomer ratio by flow cytometry in UKE-1 cells (FIG. 18); format: cell-based; settings: A1155463 treated UKE-1 cells, detected with F05
Protocol: as §1

[3] = target: BCLXL: BIM (Homo sapiens, UniProt Q07817); assay: PRIMAB intra-cellular immunofluorescent staining and flow cytometry in U266B1 cells (FIG. 19); settings: BCLXL primed U266B1 cells, HSBXB PRIMAB
Sequence of BCLXL: BIM (Q07817 whole entry): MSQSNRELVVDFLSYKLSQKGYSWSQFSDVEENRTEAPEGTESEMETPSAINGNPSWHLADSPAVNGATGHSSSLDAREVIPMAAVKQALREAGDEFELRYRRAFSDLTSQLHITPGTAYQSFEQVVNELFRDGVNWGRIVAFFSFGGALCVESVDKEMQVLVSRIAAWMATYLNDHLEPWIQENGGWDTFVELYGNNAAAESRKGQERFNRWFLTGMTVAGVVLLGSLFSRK
Protocol: Priming complexes in leukemia cells were measured by intra-cellular immunofluorescent staining with PRIMABs and detected by flow cytometry.

[4] = target: T1, BCL2:BIM complex (Homo sapiens, UniProt P10415); assay: PRIMAB intra-cellular immunofluorescent staining and flow cytometry in U2932 cells (FIG. 19); format: cell-based; parameters: endogenous in cells; host or cells: U2932; settings: BCL2 primed U2932 cells
T1 sequence (P10415 whole entry, one chain of several): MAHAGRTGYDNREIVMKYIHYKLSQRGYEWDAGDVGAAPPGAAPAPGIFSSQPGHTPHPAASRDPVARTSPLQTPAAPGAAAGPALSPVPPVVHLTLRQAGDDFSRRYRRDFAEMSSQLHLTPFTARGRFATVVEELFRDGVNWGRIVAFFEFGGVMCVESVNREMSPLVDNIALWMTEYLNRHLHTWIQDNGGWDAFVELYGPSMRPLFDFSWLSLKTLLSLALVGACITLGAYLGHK
Source text: These shifts match BH3 mimetic selectivity.

[5] = target: T1, BCL2:BIM complex; assay: Flow cytometry of BH3 mimetic treated cells, heterodimer-specific vs monomer antibodies (FIG. 17); format: cell-based; parameters: endogenous in cells; settings: detected with 2H3 (BCL2:BIM) and F05 (MCL-1:BIM)
Protocol: This shift is detected by MCL-1:BIM specific antibody (F05) relative to total MCL-1 in the cell. In this experiment, cells are treated with specific BCL2 targeted BH3 mimetic (AZD4320, Medchemexpress), fixed, permeabilized, and stained with heterodimer-specific antibodies and standard antibodies against monomers. Signals are measured on FLOW Cytometer, show relative signal and the data shown in FIG. 17 is a ratio of complex/monomer signal. FIG. 17 is a graph showing a BCL2:BIM complex specific antibody that tracts with complex disruption by a BH3 mimetic.

CN(C)CC#Cc1ccc(OCCCc2sc(N3CCc4cccc(C(=O)Nc5nc6ccccc6s5)c4C3)nc2C(=O)O)c(F)c1 [A1155463]
ratio of measured heterodimer to monomer [1]: shift and “priming” to MCL1:BIM complex
ratio of measured heterodimer to monomer [2]: shift and “priming” to MCL1:BIM complex
priming complex shift by PRIMAB readout [3]: BCLXL: BIM shift

CC1(C)CCC(CN2CCN(c3ccc(C(=O)NS(=O)(=O)c4ccc(NCC5CCOCC5)c([N+](=O)[O-])c4)c(Oc4cnc5[nH]ccc5c4)c3)CC2)=C(c2ccc(Cl)cc2)C1 [ABT-199]
priming complex shift by PRIMAB readout [4]: disruption of BCL2: BIM complex

CN(CCO)CC[C@H](CSc1ccccc1)Nc1ccc(S(=O)(=O)NC(=O)c2ccc(N3CCC([C@@H](O)c4ccccc4-c4ccc(Cl)cc4)CC3)cc2)cc1S(=O)(=O)C(F)(F)F [AZD4320]
ratio of complex/monomer signal [5]: shift from the BCL2:BIM complex to the MCL-1:BIM complex
